For two molecules, residual kinase activity results are on record in article PMC11167047 (Cell Death Discovery, 2024).

Experiment in all cases: kinome screen (33PanQinase)
Holding throughout (format): biochemical

One experiment has as its target T1, CK1α1 (Homo sapiens, UniProt P48729).
T1 construct: purchased Reaction Biology Europe GmbH (formerly ProQinase)
The method, then: (§1) The Kinome Screening was performed by Reaction Biology Europe GmbH (http://reactionbiology.com; Freiburg i. Br., Germany).

In a further experiment the target is T2, CLK1 (Homo sapiens, UniProt P49759).
T2 construct: purchased Reaction Biology Europe GmbH (formerly ProQinase)
The method, then: as §1

In a further experiment the target is T3, EPHA2 (Homo sapiens, UniProt P29317).
T3 construct: purchased Reaction Biology Europe GmbH (formerly ProQinase)
The method, then:
as §1

A further experiment has as its target T4, GSK3β (Homo sapiens, UniProt P49841).
T4 construct: purchased Reaction Biology Europe GmbH (formerly ProQinase)
As for the experimental part: as §1

For a further experiment, the target named is T5, MAP3K7/MAP3K7IP1 (Homo sapiens, UniProt O43318).
T5 construct: purchased Reaction Biology Europe GmbH (formerly ProQinase)
T5 sequence (O43318 1-303 limits assumed): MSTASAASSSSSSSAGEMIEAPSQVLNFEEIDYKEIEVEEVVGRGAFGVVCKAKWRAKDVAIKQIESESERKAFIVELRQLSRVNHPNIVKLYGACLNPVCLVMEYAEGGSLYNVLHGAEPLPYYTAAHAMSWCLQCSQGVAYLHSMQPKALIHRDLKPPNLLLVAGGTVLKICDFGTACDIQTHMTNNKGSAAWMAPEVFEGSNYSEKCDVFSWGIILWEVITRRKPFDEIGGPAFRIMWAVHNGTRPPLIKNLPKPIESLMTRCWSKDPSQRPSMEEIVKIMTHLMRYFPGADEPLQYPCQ
T5 sequence (Q15750 437-504 partner limits assumed): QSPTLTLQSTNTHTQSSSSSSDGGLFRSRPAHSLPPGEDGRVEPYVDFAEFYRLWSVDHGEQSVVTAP
The method, then: as §1

Another experiment concerns the target T6, MAP4K2 (Homo sapiens, UniProt Q12851).
T6 construct: purchased Reaction Biology Europe GmbH (formerly ProQinase)
T6 sequence (Q12851 1-820): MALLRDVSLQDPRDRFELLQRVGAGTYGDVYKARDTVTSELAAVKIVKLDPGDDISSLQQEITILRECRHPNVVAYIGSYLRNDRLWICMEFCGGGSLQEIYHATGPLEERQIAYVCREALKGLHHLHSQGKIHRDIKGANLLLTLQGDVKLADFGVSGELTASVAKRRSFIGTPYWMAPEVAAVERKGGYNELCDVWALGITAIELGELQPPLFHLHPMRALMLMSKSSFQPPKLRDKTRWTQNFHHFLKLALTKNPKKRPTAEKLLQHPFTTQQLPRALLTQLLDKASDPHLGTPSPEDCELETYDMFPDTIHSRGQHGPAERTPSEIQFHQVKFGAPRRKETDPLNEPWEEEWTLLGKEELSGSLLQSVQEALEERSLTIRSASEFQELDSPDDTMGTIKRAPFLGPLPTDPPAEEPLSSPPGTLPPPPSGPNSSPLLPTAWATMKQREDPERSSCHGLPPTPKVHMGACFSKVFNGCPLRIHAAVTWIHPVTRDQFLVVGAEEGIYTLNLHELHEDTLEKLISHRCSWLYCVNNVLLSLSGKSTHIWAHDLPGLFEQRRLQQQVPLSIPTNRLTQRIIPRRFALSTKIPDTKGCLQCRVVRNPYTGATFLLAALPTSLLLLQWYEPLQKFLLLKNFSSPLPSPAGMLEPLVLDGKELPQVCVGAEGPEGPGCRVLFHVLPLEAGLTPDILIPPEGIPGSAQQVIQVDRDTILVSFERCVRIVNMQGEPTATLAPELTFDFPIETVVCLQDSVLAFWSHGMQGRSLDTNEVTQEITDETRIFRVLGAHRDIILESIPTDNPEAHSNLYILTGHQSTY
As for the experimental part: as §1

The next experiment addresses T7, MERTK (Homo sapiens, UniProt Q12866).
T7 construct: purchased Reaction Biology Europe GmbH (formerly ProQinase)
T7 sequence (Q12866 21-999): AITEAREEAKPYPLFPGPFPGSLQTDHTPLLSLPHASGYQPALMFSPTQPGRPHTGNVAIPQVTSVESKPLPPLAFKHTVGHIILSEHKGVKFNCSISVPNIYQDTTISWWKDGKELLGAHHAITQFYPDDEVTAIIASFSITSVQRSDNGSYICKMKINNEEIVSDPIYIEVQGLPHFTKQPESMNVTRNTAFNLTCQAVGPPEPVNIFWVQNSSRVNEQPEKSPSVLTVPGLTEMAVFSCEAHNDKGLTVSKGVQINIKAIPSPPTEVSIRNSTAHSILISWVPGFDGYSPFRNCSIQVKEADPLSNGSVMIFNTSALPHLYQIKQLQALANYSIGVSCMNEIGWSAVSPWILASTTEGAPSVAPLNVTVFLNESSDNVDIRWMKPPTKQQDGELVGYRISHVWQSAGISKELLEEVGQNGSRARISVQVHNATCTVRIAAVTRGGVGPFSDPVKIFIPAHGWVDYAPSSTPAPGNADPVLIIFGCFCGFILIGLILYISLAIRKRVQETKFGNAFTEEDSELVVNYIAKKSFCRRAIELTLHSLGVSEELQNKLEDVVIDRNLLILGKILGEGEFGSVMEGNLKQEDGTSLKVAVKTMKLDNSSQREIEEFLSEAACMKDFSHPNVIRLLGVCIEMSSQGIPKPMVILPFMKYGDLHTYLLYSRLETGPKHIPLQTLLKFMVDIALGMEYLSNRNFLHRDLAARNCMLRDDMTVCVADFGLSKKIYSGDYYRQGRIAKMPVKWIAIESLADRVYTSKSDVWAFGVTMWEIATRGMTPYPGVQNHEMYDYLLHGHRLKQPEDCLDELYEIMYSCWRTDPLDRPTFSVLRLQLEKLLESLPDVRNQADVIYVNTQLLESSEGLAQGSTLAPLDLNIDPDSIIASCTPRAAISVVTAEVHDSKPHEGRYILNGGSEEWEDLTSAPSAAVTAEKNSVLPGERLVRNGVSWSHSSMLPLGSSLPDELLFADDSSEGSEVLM
As for the experimental part: as §1

For another experiment, the target named is T8, PAK4 (Homo sapiens, UniProt O96013).
T8 construct: purchased Reaction Biology Europe GmbH (formerly ProQinase)
As for the experimental part:
as §1

Another experiment addresses T9, PHKG1 (Homo sapiens, UniProt Q16816).
T9 construct: purchased Reaction Biology Europe GmbH (formerly ProQinase)
As for the experimental part: as §1

A further experiment has as its target T10, RPS6KA3 (Homo sapiens, UniProt P51812).
T10 construct: purchased Reaction Biology Europe GmbH (formerly ProQinase)
The method, then: as §1

In the next experiment the target is T11, RPS6KA5 (Homo sapiens, UniProt O75582).
T11 construct: purchased Reaction Biology Europe GmbH (formerly ProQinase)
The method, then:
as §1

T10 sequence (P51812 whole entry): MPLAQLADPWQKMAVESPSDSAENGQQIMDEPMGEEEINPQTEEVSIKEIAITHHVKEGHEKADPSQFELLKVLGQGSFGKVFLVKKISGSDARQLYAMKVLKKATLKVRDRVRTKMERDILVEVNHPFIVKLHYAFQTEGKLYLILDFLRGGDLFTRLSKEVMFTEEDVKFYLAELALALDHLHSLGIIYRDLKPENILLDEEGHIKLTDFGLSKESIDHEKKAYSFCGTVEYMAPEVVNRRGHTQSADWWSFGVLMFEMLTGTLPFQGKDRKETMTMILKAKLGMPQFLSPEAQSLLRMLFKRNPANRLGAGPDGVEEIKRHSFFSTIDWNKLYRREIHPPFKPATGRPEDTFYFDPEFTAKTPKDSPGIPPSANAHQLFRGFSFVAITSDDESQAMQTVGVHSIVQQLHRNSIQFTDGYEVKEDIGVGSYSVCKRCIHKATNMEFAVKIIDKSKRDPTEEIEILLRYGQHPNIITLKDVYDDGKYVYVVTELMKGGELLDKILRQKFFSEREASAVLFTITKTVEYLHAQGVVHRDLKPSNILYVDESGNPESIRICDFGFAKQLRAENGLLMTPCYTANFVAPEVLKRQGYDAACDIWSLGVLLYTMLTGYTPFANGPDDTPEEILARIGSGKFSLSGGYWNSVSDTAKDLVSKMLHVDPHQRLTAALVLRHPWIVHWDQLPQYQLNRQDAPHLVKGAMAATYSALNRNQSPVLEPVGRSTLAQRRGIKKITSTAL
T1 sequence (P48729 whole entry): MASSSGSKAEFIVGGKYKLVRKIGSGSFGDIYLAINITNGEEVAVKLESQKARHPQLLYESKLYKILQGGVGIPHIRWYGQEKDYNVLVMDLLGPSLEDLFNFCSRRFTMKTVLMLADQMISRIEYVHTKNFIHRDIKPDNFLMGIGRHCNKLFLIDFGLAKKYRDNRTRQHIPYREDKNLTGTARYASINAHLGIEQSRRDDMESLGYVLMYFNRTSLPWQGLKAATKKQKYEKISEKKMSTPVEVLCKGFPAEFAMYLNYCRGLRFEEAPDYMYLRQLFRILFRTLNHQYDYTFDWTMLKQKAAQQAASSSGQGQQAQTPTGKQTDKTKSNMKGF
T4 sequence (P49841 whole entry): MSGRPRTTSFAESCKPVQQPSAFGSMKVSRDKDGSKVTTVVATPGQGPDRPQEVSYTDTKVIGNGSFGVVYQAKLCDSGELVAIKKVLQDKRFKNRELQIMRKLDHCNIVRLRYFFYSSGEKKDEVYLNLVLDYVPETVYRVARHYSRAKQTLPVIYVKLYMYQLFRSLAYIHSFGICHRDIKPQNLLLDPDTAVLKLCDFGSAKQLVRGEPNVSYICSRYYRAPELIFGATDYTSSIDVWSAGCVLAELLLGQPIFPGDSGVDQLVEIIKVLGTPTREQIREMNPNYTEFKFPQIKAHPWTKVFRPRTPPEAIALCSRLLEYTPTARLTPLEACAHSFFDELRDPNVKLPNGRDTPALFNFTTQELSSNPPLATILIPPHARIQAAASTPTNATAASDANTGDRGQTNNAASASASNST
T8 sequence (O96013 whole entry): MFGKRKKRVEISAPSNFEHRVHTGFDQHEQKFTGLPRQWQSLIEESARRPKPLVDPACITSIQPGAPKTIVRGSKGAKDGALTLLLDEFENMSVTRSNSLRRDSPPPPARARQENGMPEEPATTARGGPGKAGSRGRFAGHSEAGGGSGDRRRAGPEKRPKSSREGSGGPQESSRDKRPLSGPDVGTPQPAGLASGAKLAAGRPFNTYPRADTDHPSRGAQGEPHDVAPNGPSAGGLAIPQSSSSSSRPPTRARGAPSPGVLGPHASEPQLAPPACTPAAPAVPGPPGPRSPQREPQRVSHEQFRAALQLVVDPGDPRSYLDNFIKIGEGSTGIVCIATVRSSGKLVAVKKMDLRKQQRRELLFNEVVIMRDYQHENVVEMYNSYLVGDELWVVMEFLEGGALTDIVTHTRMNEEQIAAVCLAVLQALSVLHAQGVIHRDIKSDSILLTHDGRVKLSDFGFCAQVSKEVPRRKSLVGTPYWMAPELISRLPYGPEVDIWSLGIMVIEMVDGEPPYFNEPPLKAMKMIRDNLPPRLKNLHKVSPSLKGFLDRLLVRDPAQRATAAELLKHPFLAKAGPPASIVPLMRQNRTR
T3 sequence (P29317 24-976): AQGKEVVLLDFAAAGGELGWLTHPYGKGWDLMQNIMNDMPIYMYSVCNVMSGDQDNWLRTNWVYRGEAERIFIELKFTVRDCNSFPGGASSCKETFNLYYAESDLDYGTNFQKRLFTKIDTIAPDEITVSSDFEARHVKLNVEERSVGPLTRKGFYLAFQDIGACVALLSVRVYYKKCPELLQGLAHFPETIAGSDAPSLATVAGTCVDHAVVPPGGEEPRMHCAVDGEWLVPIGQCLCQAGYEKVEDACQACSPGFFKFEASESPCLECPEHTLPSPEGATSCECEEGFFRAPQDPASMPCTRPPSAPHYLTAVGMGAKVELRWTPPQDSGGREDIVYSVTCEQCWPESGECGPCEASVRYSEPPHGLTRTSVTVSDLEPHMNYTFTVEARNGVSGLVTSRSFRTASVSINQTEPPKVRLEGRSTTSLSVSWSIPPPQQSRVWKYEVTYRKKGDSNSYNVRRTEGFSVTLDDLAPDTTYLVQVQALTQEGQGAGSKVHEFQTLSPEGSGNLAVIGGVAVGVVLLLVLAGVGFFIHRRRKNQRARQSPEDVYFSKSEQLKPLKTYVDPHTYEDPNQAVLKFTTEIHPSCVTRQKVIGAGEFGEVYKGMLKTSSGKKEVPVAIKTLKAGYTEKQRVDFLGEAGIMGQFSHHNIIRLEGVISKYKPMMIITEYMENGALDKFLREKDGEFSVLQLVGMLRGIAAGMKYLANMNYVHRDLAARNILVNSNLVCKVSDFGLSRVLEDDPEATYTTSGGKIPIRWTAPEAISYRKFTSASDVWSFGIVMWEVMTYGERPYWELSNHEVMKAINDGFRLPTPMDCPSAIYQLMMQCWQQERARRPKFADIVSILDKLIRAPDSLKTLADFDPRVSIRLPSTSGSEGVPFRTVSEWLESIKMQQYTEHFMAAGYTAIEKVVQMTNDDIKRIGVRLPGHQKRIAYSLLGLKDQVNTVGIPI
T2 sequence (P49759 whole entry): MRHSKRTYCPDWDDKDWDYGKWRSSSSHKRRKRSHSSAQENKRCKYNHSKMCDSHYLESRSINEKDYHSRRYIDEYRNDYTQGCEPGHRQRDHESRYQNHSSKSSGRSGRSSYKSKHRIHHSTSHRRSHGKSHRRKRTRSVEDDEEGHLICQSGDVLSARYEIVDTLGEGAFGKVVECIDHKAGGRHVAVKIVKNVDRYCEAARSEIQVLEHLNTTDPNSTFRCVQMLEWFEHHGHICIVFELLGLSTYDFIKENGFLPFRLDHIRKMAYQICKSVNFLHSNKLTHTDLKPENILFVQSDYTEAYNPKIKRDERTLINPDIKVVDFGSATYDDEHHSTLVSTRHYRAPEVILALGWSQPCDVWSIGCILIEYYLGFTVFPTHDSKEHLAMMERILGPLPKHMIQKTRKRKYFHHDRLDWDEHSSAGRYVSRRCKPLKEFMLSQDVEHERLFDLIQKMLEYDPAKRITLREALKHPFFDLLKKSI
T9 sequence (Q16816 whole entry): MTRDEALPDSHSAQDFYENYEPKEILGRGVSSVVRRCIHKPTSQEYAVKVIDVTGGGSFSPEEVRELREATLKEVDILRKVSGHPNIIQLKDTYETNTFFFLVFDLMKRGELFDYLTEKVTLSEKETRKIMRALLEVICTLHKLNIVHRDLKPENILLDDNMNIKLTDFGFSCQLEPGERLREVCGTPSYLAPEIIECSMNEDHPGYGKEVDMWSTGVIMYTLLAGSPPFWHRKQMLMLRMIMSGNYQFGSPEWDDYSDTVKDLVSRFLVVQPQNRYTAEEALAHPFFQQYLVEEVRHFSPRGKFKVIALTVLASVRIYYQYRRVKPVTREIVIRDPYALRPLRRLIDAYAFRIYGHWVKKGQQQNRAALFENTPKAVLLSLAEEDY
T11 sequence (O75582 whole entry): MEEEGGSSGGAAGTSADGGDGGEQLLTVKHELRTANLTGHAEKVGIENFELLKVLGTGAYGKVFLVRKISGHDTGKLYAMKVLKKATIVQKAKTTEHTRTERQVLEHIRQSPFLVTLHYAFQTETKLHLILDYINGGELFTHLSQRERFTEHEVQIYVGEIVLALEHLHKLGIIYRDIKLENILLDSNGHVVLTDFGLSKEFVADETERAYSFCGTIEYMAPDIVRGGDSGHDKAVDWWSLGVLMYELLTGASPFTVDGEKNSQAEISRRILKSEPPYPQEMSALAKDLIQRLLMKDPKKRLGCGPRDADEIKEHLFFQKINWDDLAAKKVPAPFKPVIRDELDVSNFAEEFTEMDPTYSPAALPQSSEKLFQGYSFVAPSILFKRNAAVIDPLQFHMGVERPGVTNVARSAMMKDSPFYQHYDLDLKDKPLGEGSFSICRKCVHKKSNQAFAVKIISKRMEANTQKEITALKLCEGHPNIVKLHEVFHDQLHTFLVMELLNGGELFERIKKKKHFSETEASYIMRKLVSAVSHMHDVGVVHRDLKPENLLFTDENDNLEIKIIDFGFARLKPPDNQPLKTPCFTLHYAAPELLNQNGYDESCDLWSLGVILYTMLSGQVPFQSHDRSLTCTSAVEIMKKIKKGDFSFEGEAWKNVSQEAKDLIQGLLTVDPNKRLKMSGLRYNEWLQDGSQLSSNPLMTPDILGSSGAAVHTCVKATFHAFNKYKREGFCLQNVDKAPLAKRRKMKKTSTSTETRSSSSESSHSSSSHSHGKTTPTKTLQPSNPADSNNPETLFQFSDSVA

Turning to `c1ccc(CNc2cc(-c3c[nH]c4ncccc34)ccn2)cc1` [meriolin 36], the residual kinase activity is reported as 110 % of control on CK1α1 (0.3 µM); 51 % of control on CK1α1 (3 µM); 4 % of control at CLK1 (0.3 µM); 2 % of control at CLK1 (3 µM); 101 % of control at EPHA2 (0.3 µM); 72 % of control at EPHA2 (3 µM). Besides, the residual kinase activity at GSK3β (0.3 µM) is reported as 18 % of control; at GSK3β (3 µM), 2 % of control; on MAP3K7/MAP3K7IP1 (0.3 µM), 15 % of control; on MAP3K7/MAP3K7IP1 (3 µM), 5 % of control; on MAP4K2 (0.3 µM), 3 % of control; at MAP4K2 (3 µM), 0 % of control. The residual kinase activity is recorded as 69 % of control at MERTK (0.3 µM); 36 % of control at MERTK (3 µM); 56 % of control on PAK4 (0.3 µM); 16 % of control on PAK4 (3 µM); 16 % of control at PHKG1 (0.3 µM); 2 % of control on PHKG1 (3 µM). In addition, the residual kinase activity at RPS6KA3 (0.3 µM) is listed as 7 % of control; at RPS6KA3 (3 µM) it was 1 % of control; on RPS6KA5 (0.3 µM) it was 46 % of control; at RPS6KA5 (3 µM), 15 % of control.
Turning to `COc1ccnc2[nH]cc(-c3cc(N)nc(N)c3)c12` [meriolin 16], the residual kinase activity was 129 % of control on CK1α1 (0.03 µM); 93 % of control on CK1α1 (0.3 µM); 11 % of control on CLK1 (0.03 µM); 3 % of control at CLK1 (0.3 µM); 109 % of control at EPHA2 (0.03 µM); 101 % of control at EPHA2 (0.3 µM). Also, the residual kinase activity on GSK3β (0.03 µM) was 80 % of control; at GSK3β (0.3 µM) it was 66 % of control; on MAP3K7/MAP3K7IP1 (0.03 µM), 54 % of control; on MAP3K7/MAP3K7IP1 (0.3 µM), 17 % of control; on MAP4K2 (0.03 µM) it was 22 % of control; on MAP4K2 (0.3 µM), 4 % of control. Further, the residual kinase activity on MERTK (0.03 µM) is 97 % of control; at MERTK (0.3 µM) it was 86 % of control; on PAK4 (0.03 µM), 86 % of control; at PAK4 (0.3 µM), 74 % of control; on PHKG1 (0.03 µM) it was 85 % of control; on PHKG1 (0.3 µM), 39 % of control. Moreover, the residual kinase activity was 85 % of control on RPS6KA3 (0.03 µM), 39 % of control at RPS6KA3 (0.3 µM), 89 % of control at RPS6KA5 (0.03 µM) and 82 % of control at RPS6KA5 (0.3 µM).
